Measurements: US20230085307A1, “PYRIDAZINONE COMPOUND AND HERBICIDE” (NISSAN CHEMICAL CORPORATION, priority 2019, published 2023)

Columns and labels:
[1] = system: southern crabgrass; experiment: Test Example 5: herbicidal effect by foliage application, plastic box (Table 20, symbol F); format: in vivo, southern crabgrass (Digitaria ciliaris); settings: foliage application, AAH 320 g/ha, evaluated three weeks after application
In short: (§1)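 Foliar spray test: emulsion formulation diluted in water to a set application rate, sprayed onto 14-day-old plants raised in diluvial soil at 25° C to 30° C under glass. Both herbicidal effect and crop effect rated visually three weeks later.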

[2] = system: Japanese bulrush; experiment: Test Example 2: herbicidal activity, application during weed generation under submerged conditions (Table 17, symbol B); format: in vivo, Japanese bulrush (Schoenoplectus juncoides); settings: AAH 320 g/ha; application during weed generation, submerged conditions
In short: (§2)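 Alluvial soil in Wagner pots was flooded to 4 cm depth and sown with the three weeds together; pots were kept in a greenhouse at 25° C. to 30° C. At the one to two leaf stage, an emulsion formulation diluted in water to a set rate went onto the water surface; scored three weeks later.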

[3] = system: oval-leafed pondweed; experiment: Test Example 2: herbicidal activity, application during weed generation under submerged conditions (Table 17, symbol C); format: in vivo, oval-leafed pondweed (Monochoria vaginalis); settings: AAH 320 g/ha; application during weed generation, submerged conditions
In short: as §2

[4] = system: green foxtail; experiment: Test Example 5: herbicidal effect by foliage application, plastic box (Table 20, symbol G); format: in vivo, green foxtail (Setaria viridis); settings: foliage application, AAH 320 g/ha, evaluated three weeks after application
In short: as §1

[5] = system: windgrass; experiment: Test Example 4: herbicidal effect by soil treatment (Table 19, symbol L); format: in vivo, windgrass (Apera spica-venti); settings: amount of applied herbicide 320 g/ha
In short: (§3)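 Step 1: sow seeds in sterilized diluvial soil, cover ~1.5 cm. Step 2: spray diluted emulsion onto soil surface at predetermined rate. Step 3: greenhouse, 25–30° C, three weeks. Step 4: grade effect on each plant by earlier criteria.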

[6] = system: velvetleaf; experiment: Test Example 4: herbicidal effect by soil treatment (Table 19, symbol M); format: in vivo, velvetleaf (Abutilon theophrasti); settings: amount of applied herbicide 320 g/ha
In short: as §3

[7] = system: wild oat; experiment: Test Example 4: herbicidal effect by soil treatment (Table 19, symbol I); format: in vivo, wild oat (Avena fatua); settings: amount of applied herbicide 320 g/ha
In short: as §3

[8] = system: windgrass; experiment: Test Example 5: herbicidal effect by foliage application, plastic box (Table 20, symbol L); format: in vivo, windgrass (Apera spica-venti); settings: foliage application, AAH 320 g/ha, evaluated three weeks after application
In short: as §1

[9] = system: Italian ryegrass; experiment: Test Example 4: herbicidal effect by soil treatment (Table 19, symbol K); format: in vivo, Italian ryegrass (Lolium multiflorum); settings: amount of applied herbicide 320 g/ha
In short: as §3

[10] = system: chickweed; experiment: Test Example 5: herbicidal effect by foliage application, plastic box (Table 20, symbol P); format: in vivo, common chickweed (Stellaria media); settings: foliage application, AAH 320 g/ha, evaluated three weeks after application
In short: as §1

[11] = system: green foxtail; experiment: Test Example 4: herbicidal effect by soil treatment (Table 19, symbol G); format: in vivo, green foxtail (Setaria viridis); settings: amount of applied herbicide 320 g/ha
In short: as §3

[12] = system: oval-leafed pondweed; experiment: Test Example 1: herbicidal activity, application before weed generation under submerged conditions (Table 16, symbol C); format: in vivo, oval-leafed pondweed (Monochoria vaginalis); settings: 320 g/ha applied herbicide
In short: (§4)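 Emulsion formulation, water-diluted to set dose, was put onto the flooded surface (4 cm depth, alluvial soil) the same day weeds were sown and 2.5-leaf rice transplanted. After 3 weeks at 25-30 °C under glass, each species was rated 0 (≤5% kill) to 5 (≥90% kill).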

[13] = system: lambsquarters; experiment: Test Example 5: herbicidal effect by foliage application, plastic box (Table 20, symbol O); format: in vivo, lambsquarters (Chenopodium album); settings: foliage application, AAH 320 g/ha, evaluated three weeks after application
In short: as §1

[14] = system: Japanese bulrush; experiment: Test Example 1: herbicidal activity, application before weed generation under submerged conditions (Table 16, symbol B); format: in vivo, Japanese bulrush (Schoenoplectus juncoides); settings: 320 g/ha applied herbicide
In short: as §4

[15] = system: persian speedwell; experiment: Test Example 4: herbicidal effect by soil treatment (Table 19, symbol R); format: in vivo, Persian speedwell (Veronica persica); settings: amount of applied herbicide 320 g/ha
In short: as §3

[16] = system: rice flat sedge; experiment: Test Example 3: herbicidal effect by foliage application, Wagner pot (Table 18, symbol E); format: in vivo, rice flat sedge (Cyperus iria); settings: amount of applied herbicide 320 g/ha
In short: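 Plants were sown in alluvial soil held under 0.1–0.5 cm standing water and grown 14 days in a greenhouse at 25–30 °C. An emulsifiable formulation, water-diluted to the set dose, was then sprayed onto the foliage, and effects were scored three weeks later using previously defined criteria.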

SMILES	F: southern crabgrass, herbicidal effect (criteria 0-5) [1]	herbicidal effect rating, B: Japanese bulrush [2]	herbicidal effect rating, C: oval-leafed pondweed [3]	G: green foxtail, herbicidal effect (criteria 0-5) [4]	herbicidal effect on L: windgrass [5]	herbicidal effect on M: velvetleaf [6]	herbicidal effect on I: wild oat [7]	L: windgrass, herbicidal effect (criteria 0-5) [8]	herbicidal effect on K: Italian ryegrass [9]	P: chickweed, herbicidal effect (criteria 0-5) [10]	herbicidal effect on G: green foxtail [11]	Herbicidal effect on C: oval-leafed pondweed (grade 0-5) [12]	O: lambsquarters, herbicidal effect (criteria 0-5) [13]	Herbicidal effect on B: Japanese bulrush (grade 0-5) [14]	herbicidal effect on R: persian speedwell [15]	herbicidal effect on E: rice flat sedge [16]
CC(=O)c1ccc(-c2sc3ccc(F)cc3c2-c2c(O)c(C)nn(C)c2=O)cc1 [2-339]	3 (Herbicidal rate of 40% or more and less than 70%)	3 (Herbicidal rate of 40% or more and less than 70%)	3 (Herbicidal rate of 40% or more and less than 70%)	4 (Herbicidal rate of 70% or more and less than 90%)	2 (Herbicidal rate of 20% or more and less than 40%)	5 (Herbicidal rate of 90% or more (almost completely withered))	0 (Herbicidal rate of 5% or less (almost no effect))	5 (Herbicidal rate of 90% or more (almost completely withered))	4 (Herbicidal rate of 70% or more and less than 90%)	5 (Herbicidal rate of 90% or more (almost completely withered))	0 (Herbicidal rate of 5% or less (almost no effect))	5 (Herbicidal rate of 90% or more (almost completely withered))	4 (Herbicidal rate of 70% or more and less than 90%)	5 (Herbicidal rate of 90% or more (almost completely withered))	4 (Herbicidal rate of 70% or more and less than 90%)	4 (Herbicidal rate of 70% or more and less than 90%)
Cc1nn(C)c(=O)c(-c2c(-c3ccc([N+](=O)[O-])cc3)sc3ccc(F)cc23)c1O [2-341]	5 (Herbicidal rate of 90% or more (almost completely withered))	3 (Herbicidal rate of 40% or more and less than 70%)	3 (Herbicidal rate of 40% or more and less than 70%)	5 (Herbicidal rate of 90% or more (almost completely withered))	1 (Herbicidal rate of 5% or more and less than 20%)	3 (Herbicidal rate of 40% or more and less than 70%)	3 (Herbicidal rate of 40% or more and less than 70%)	4 (Herbicidal rate of 70% or more and less than 90%)	5 (Herbicidal rate of 90% or more (almost completely withered))	5 (Herbicidal rate of 90% or more (almost completely withered))	4 (Herbicidal rate of 70% or more and less than 90%)	5 (Herbicidal rate of 90% or more (almost completely withered))	5 (Herbicidal rate of 90% or more (almost completely withered))	4 (Herbicidal rate of 70% or more and less than 90%)	5 (Herbicidal rate of 90% or more (almost completely withered))	3 (Herbicidal rate of 40% or more and less than 70%)
